Entries after “also recorded” stand apart in the source; their conditions may differ.
Experiments:
[1] = biological target: T1, human mGlu2 (Homo sapiens, UniProt Q14416); conditions: decrease forskolin-stimulated cAMP, mean ± S.E.M., read-out: EC50 (nM) (Agonist Activity); cited from earlier work
T1 construct: expressed in transfected cells; host or cells: RGT cells (cells expressing the rat glutamate transporter)

[2] = biological target: T2, human mGlu3 (Homo sapiens, UniProt Q14832); conditions: decrease forskolin-stimulated cAMP, mean ± S.E.M., read-out: EC50 (nM) (Agonist Activity); cited from earlier work
T2 construct: expressed in transfected cells; host or cells: RGT cells (cells expressing the rat glutamate transporter)
T2 sequence (Q14832 23-879): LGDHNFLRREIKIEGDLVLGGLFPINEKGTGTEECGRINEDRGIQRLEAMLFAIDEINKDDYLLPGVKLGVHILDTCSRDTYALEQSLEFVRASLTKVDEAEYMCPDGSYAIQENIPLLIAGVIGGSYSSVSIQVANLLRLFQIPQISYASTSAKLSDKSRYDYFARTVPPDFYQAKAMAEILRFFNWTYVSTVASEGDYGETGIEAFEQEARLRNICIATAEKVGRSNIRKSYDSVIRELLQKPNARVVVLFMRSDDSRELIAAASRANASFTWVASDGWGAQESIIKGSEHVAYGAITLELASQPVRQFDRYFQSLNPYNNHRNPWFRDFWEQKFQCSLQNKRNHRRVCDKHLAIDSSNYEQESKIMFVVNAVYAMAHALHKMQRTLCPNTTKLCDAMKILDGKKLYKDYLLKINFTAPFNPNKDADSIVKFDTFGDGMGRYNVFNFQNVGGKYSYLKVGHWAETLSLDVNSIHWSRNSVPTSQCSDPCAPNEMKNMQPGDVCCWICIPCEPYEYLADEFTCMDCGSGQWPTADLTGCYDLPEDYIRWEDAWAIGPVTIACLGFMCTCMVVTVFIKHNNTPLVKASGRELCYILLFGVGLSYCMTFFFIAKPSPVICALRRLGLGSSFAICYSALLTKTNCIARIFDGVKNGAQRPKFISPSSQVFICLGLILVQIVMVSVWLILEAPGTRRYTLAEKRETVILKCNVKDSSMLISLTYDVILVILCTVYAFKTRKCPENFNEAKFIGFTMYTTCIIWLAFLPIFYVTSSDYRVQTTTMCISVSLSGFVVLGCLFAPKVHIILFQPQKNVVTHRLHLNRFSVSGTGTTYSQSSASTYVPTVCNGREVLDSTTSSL

[3] = biological target: T3, human mGlu1 (Homo sapiens, UniProt Q13255); conditions: increase PI hydrolysis, cited from earlier work
T3 construct: expressed in transfected cells; host or cells: RGT cells (cells expressing the rat glutamate transporter)
T3 sequence (Q13255 19-1194): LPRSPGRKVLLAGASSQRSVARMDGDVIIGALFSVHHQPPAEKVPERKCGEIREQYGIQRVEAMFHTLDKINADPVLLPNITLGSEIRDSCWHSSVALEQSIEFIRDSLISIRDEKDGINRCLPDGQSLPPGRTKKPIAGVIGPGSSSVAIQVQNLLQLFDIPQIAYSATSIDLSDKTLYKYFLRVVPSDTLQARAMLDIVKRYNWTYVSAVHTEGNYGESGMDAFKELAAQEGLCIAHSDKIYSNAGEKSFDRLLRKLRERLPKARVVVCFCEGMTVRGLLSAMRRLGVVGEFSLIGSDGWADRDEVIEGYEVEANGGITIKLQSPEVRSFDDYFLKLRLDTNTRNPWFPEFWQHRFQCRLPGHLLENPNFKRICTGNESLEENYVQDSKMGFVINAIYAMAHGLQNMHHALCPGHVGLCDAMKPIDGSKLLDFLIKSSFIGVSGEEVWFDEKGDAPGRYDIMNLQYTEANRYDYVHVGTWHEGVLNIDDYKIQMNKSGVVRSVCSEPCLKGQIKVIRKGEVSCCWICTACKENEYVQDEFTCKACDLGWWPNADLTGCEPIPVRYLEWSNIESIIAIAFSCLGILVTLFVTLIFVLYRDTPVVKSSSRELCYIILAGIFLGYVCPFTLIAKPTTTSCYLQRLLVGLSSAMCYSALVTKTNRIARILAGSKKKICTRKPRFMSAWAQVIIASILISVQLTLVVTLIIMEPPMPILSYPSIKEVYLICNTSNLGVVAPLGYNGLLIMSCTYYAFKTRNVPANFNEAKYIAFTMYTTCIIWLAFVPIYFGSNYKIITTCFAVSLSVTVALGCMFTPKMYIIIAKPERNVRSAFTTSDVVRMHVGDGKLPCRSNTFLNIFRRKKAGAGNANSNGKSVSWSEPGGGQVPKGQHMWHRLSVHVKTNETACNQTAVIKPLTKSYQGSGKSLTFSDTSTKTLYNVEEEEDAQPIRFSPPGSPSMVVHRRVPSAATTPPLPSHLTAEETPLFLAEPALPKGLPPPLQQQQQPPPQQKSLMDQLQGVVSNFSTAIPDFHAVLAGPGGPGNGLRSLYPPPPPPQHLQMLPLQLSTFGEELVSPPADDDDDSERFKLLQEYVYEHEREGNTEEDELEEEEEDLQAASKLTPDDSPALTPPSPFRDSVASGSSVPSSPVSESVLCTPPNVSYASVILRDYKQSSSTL

[4] = biological target: T4, human mGlu5 (Homo sapiens, UniProt P41594); conditions: increase PI hydrolysis, cited from earlier work
T4 construct: expressed in transfected cells; host or cells: RGT cells (cells expressing the rat glutamate transporter)
T4 sequence (P41594 21-1180 isoform P41594-2 limits assumed): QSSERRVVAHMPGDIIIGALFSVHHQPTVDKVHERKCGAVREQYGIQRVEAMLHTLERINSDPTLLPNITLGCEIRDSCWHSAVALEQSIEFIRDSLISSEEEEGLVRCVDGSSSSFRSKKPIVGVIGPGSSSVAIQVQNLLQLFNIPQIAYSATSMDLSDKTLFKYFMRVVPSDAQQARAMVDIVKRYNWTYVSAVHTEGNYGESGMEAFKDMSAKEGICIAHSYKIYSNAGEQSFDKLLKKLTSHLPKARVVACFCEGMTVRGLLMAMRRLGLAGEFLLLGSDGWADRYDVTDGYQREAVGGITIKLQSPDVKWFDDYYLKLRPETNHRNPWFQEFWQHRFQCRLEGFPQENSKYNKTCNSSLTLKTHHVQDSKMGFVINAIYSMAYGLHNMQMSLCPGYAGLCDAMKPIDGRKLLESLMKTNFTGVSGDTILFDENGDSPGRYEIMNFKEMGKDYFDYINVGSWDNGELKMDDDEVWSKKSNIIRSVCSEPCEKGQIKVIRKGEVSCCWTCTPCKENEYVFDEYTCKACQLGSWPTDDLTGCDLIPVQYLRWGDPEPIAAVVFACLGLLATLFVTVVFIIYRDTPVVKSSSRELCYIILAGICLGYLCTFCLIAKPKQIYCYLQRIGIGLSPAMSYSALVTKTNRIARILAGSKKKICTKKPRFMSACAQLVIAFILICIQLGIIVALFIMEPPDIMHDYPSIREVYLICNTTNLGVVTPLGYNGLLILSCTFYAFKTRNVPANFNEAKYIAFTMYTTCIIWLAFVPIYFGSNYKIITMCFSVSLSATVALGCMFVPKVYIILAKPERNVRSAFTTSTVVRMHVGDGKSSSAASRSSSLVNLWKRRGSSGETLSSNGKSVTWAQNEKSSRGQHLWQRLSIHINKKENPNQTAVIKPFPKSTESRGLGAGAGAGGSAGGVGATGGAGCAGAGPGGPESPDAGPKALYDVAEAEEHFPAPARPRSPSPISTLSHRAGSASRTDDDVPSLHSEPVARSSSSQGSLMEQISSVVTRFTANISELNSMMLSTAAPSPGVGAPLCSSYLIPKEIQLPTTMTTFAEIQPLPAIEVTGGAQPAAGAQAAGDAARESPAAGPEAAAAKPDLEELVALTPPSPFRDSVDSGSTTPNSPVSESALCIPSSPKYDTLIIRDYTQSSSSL

[5] = system: PCP-induced motor activation (ambulations); experiment: PCP-induced motor activation (ambulations) in rats; type: in vivo, rat; conditions: PCP 5 mg/kg s.c., 60 min
Experimental: In the present experiments, studies were performed in accordance with Eli Lilly and Company animal care and use policies. Male Sprague-Dawley rats (250-300 g) were group-housed (maximum of seven rats per cage) under standard laboratory conditions with ad libitum access to food and water (12 h light/dark cycle), for at least 1 day before use.
Activity Assessment compounds were tested against PCP-induced motor activation (ambulations) in rats. Behavioral parameters were monitored in transparent, shoe-box cages that measured 45×25×20 cm, with a 1 cm depth of wood chips on the cage floor and a metal grill on top of the cage. Rectangular photocell monitors (Hamilton Kinder, Poway, Calif.) with a bank of […] (8×4 formation) surrounded each test cage. A lower rack of photocell beams was positioned 5 cm above the cage floor to enable detection of the location of the animals body, while an upper bank positioned 10 cm above the first tabulated rearing activity. Ambulations (locomotor activity) and rearing were recorded by the computer and stored for each test session as discussed in Male Sprague-Dawley rats were generally food-fasted 12-18 hours prior to the experiment. In some experiments, rats were allowed food and water ad libitum prior to the experiment. On the test day animals were placed in the test cage for a 30 min habituation period before to testing to allow for acclimation to the test cage environment. Following this habituation period, animals were administered challenges of phencyclidine (PCP) (5 mg/kg s.c.) or 0.9% NaCl vehicle (1 ml/kg) and behavioral assessment began immediately following their administration. Animals were monitored over a 60 min period in all instances. Test drugs or vehicle were administered at various pretreatment times prior to the PCP challenge.
Statistical analysis. Statistical Analysis were carried out using the GraphPad PRISM statistical/graphing package (GraphPad, SanDiego, Calif.). Data were analyzed using a one-way analysis of variance (ANOVA) and post-hoc comparisons were performed using Dunnett's multiple comparisons test.
The rats were tested 30 minutes post-injection of the test compound or vehicle. Behaviors were monitored over a 60 minute time period following S.C. injection of PCP or vehicle. Data (mean±S.E.) are presented as the total number of behaviors expressed during the timer period.

[6] = biological target: T5, human mGlu7 (Homo sapiens, UniProt Q14831); conditions: decrease forskolin-stimulated cAMP, cited from earlier work
T5 construct: expressed in transfected cells; host or cells: RGT cells (cells expressing the rat glutamate transporter)
T5 sequence (Q14831 35-915): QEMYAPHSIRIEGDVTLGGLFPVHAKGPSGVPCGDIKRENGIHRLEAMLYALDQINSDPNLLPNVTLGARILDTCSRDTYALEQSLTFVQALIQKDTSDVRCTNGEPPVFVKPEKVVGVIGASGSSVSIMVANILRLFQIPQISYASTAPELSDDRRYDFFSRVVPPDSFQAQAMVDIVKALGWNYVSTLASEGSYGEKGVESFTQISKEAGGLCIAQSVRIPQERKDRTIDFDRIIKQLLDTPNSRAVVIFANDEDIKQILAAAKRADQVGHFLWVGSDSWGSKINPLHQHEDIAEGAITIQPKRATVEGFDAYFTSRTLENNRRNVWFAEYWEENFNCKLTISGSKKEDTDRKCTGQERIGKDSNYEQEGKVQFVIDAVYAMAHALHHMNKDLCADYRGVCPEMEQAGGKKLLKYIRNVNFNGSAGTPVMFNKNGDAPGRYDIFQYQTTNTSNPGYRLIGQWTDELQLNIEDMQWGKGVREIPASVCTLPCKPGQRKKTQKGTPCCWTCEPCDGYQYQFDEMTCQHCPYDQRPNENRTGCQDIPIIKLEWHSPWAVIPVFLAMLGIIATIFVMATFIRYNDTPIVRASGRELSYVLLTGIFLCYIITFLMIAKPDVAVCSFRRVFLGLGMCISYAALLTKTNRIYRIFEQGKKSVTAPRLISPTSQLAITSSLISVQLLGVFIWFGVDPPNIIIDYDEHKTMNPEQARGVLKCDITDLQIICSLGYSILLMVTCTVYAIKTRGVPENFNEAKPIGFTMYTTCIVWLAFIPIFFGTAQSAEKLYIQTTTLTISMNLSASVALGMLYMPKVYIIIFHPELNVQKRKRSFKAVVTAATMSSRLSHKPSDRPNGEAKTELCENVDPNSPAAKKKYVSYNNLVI

[7] = biological target: T6, human mGlu8 (Homo sapiens, UniProt O00222); conditions: decrease forskolin-stimulated cAMP, mean ± S.E.M., read-out: EC50 (nM) (Agonist Activity); cited from earlier work
T6 construct: expressed in transfected cells; host or cells: RGT cells (cells expressing the rat glutamate transporter)

[8] = biological target: T7, human mGlu4 (Homo sapiens, UniProt Q14833); conditions: decrease forskolin-stimulated cAMP, cited from earlier work
T7 construct: expressed in transfected cells; host or cells: RGT cells (cells expressing the rat glutamate transporter)
T7 sequence (Q14833 33-912): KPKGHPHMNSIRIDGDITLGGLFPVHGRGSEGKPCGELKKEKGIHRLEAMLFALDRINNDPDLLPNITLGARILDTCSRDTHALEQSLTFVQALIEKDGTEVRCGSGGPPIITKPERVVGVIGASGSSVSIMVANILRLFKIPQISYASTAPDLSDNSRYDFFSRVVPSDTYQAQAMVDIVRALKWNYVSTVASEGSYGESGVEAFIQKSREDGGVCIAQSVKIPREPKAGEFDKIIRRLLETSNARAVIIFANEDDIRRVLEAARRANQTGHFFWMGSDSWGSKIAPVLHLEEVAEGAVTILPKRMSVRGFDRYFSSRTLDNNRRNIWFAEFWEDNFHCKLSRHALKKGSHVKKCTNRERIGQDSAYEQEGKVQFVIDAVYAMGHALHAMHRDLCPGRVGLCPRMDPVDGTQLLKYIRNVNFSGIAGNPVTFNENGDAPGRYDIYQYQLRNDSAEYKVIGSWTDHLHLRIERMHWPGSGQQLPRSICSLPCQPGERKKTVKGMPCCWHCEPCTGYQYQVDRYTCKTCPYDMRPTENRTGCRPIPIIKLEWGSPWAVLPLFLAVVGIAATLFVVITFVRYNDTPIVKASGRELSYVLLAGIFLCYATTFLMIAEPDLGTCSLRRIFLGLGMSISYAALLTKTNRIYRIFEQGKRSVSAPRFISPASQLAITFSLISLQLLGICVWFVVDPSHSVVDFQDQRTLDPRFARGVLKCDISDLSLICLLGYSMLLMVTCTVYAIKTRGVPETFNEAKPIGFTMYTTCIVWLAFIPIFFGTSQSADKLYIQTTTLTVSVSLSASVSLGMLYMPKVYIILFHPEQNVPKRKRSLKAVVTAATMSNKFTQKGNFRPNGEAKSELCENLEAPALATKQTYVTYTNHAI

[9] = read-out: EC50 (nM) (Agonist Activity)
[10] = read-out: IC50 (nM) (Antagonist Activity)

NC1(C(=O)O)CCC2C(C(=O)O)C21 (single isomer, unassigned; (+)) [LY354740, (+)-2-aminobicyclo[3.1.0]hexane-2,6-dicarboxylic acid]
EC50 [1]: 5.1 ± 0.3 nM | EC50 [2]: 24.3 ± 0.5 nM | EC50 [3, 9]: > 100000 nM | IC50 [3, 10]: > 100000 nM | EC50 [4, 9]: > 100000 nM | IC50 [4, 10]: > 100000 nM | effect on PCP-induced ambulations ([5]; single agent 10 mg/kg): statistically insignificant effect | EC50 [6, 9]: > 100000 nM | IC50 [6, 10]: > 100000 nM | EC50 [7]: 36000 nM | EC50 [8, 9]: > 100000 nM | IC50 [8, 10]: > 100000 nM

N[C@]1(C(=O)O)C[C@H](F)[C@@H]2[C@@H](C(=O)O)[C@@H]21 [LY459477, (1S,2R,4S,5S,6S)-2-amino-4-fluorobicyclo[3.1.0]hexane-2,6-dicarboxylic acid]
effect on PCP-induced ambulations ([5]; single agent 1 mg/kg): relatively small impact; also recorded: statistically insignificant effect

Cc1cc2c(s1)Nc1ccccc1N=C2N1CCN(C)CC1 [Olanzapine, 2-methyl-4-(4-methyl-1-piperazinyl)-10H-thieno[2,3-b][1,5]benzodiazepine, reference compound]
effect on PCP-induced ambulations ([5]; single agent 1 mg/kg): significant impact; also recorded: minimal impact

N[C@@]1(C(=O)O)CO[C@H]2[C@H](C(=O)O)[C@H]21 [LY379268, 1R,4R,5S,6R-4-amino-(2-oxabicyclo[3.1.0]hexane)-4,6-dicarboxylic acid]
effect on PCP-induced ambulations ([5]; single agent 1 mg/kg): smaller and statistically insignificant effect

Source: patent US20050192273A1, “Therapy for psychoses combining an atypical antipsychotic and an mglu2/3 receptor agonist” (priority 2002, published 2005)
